In ChEMBL document CHEMBL3612003, “The interaction of 4-thiazolidinone derivatives containing indolin-2-one moiety with P-glycoprotein studied using K562 cell lines” (Eur J Med Chem, 2015):

Key:
[1] = test system: K562; assay: Cytotoxicity against human drug-sensitive K562 cells assessed as reduction in cell viability incubated for 48 hrs by SRB assay; format: functional, cell-based; conditions: K562, 48 h
[2] = molecular target: ATP-dependent translocase ABCB1 (Homo sapiens, UniProt P08183); assay: Inhibition of P-glycoprotein in human drug-resistant K562/ADR cells assessed as reduction in P-gp mediated rhodamine 123 efflux by spectrofluorometry; format: cell-based
[3] = Cytotoxicity against human drug-resistant K562/ADR cells expressing high levels of P-glycoprotein assessed as reduction in cell viability incubated for 48 hrs by SRB assay; format: functional, cell-based
[4] = test system: K562; assay: Resistance index, ratio of IC50 for drug-resistant human K562/ADR cells to IC50 for drug-sensitive human K562 cells; format: functional

Sequence of ATP-dependent translocase ABCB1 (P08183 whole entry): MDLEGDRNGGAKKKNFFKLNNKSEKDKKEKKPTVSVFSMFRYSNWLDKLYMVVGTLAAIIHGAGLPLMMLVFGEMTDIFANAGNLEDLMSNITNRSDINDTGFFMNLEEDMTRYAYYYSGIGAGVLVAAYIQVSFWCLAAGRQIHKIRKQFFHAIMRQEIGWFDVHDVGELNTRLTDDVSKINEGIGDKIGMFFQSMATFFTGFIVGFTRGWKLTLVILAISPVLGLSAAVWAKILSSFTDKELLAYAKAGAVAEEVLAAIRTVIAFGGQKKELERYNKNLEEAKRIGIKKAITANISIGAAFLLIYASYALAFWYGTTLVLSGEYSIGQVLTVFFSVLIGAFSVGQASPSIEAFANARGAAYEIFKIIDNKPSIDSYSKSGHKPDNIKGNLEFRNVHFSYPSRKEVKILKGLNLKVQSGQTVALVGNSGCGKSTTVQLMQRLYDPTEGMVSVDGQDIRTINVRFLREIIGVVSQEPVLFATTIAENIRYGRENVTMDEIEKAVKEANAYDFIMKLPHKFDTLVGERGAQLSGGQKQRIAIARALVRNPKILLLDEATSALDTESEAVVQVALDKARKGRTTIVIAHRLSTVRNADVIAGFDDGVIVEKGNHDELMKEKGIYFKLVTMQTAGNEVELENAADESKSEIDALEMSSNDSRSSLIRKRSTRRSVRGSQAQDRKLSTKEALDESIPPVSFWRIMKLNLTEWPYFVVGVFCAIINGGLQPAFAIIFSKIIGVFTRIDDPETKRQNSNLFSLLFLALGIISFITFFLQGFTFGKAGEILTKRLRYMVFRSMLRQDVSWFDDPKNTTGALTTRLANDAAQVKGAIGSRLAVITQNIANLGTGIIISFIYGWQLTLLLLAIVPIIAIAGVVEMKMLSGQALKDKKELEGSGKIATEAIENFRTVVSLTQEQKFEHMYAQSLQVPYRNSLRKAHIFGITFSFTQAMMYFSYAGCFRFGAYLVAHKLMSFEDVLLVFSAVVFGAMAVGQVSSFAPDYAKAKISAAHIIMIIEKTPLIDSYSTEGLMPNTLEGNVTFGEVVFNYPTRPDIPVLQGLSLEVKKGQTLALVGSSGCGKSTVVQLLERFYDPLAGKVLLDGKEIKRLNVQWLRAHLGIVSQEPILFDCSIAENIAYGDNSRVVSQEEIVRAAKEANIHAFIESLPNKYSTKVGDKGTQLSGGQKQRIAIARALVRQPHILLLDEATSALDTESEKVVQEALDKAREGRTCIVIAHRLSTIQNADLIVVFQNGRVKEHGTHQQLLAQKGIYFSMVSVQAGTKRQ

Ki [2] [nM] | SMILES | IC50 [1] [nM] | IC50 [3] [nM] | Ratio IC50 [4]
1710 | CCN(CC)CCCn1c(=O)/c(=C/c2ccccc2O)s/c1=C1/C(=O)Nc2ccc(C)cc21 | 14800 | 30600 | 2.07
480 | CCN(CC)CCCn1c(=O)/c(=C/c2ccc3c(c2)OCO3)s/c1=C1/C(=O)Nc2ccccc21 | 1440 | 7950 | 5.53
940 | CCN(CC)CCCn1c(=O)/c(=C/c2ccc3c(c2)OCO3)s/c1=C1/C(=O)Nc2ccc(C)cc21 | 2040 | 5030 | 2.46
> 2230 | CCN(CC)CCCn1c(=O)/c(=C/c2ccc3c(c2)OCO3)s/c1=C1/C(=O)Nc2ccc(F)cc21 | 7380 | 12500 | 1.7
> 2230 | CCN(CC)CCCn1c(=O)/c(=C/c2ccc3c(c2)OCO3)s/c1=C1/C(=O)Nc2cc(F)ccc21 | 2260 | 2980 | 1.32
1780 | CCN(CC)CCCn1c(=O)/c(=C/c2ccc3c(c2)OCO3)s/c1=C1/C(=O)Nc2ccc(Cl)cc21 | 4860 | 5050 | 1.04
1710 | CCN(CC)CCCn1c(=O)/c(=C/c2ccccc2O)s/c1=C1\C(=O)Nc2ccc(C)cc21 | 14800 | 30600 | 2.07
480 | CCN(CC)CCCn1c(=O)/c(=C/c2ccc3c(c2)OCO3)s/c1=C1\C(=O)Nc2ccccc21 | 1440 | 7950 | 5.53
940 | CCN(CC)CCCn1c(=O)/c(=C/c2ccc3c(c2)OCO3)s/c1=C1\C(=O)Nc2ccc(C)cc21 | 2040 | 5030 | 2.46
> 2230 | CCN(CC)CCCn1c(=O)/c(=C/c2ccc3c(c2)OCO3)s/c1=C1\C(=O)Nc2ccc(F)cc21 | 7380 | 12500 | 1.7
> 2230 | CCN(CC)CCCn1c(=O)/c(=C/c2ccc3c(c2)OCO3)s/c1=C1\C(=O)Nc2cc(F)ccc21 | 2260 | 2980 | 1.32
1780 | CCN(CC)CCCn1c(=O)/c(=C/c2ccc3c(c2)OCO3)s/c1=C1\C(=O)Nc2ccc(Cl)cc21 | 4860 | 5050 | 1.04

Second part, the compound before the results:

SMILES | Ki [2] [nM] | IC50 [1] [nM] | IC50 [3] [nM] | Ratio IC50 [4]
CN(C)CCn1c(=O)/c(=C/c2ccc(O)cc2)s/c1=C1/C(=O)Nc2ccccc21 | > 2230 | 4280 | 6160 | 1.44
CCN(CC)CCCn1c(=O)/c(=C/c2ccc(F)c(F)c2)s/c1=C1/C(=O)Nc2ccc(F)cc21 | > 2230 | 13400 | 6480 | 0.48
Cc1ccc2c(c1)/C(=c1\s/c(=C\c3ccc(O)cc3)c(=O)n1CCN(C)C)C(=O)N2 | > 2230 | 6740 | 6800 | 1.01
CCN(CC)CCCn1c(=O)/c(=C/c2ccc(F)cc2F)s/c1=C1/C(=O)Nc2cc(F)ccc21 | 1010 | 3690 | 4120 | 1.12
CCN(CC)CCCn1c(=O)/c(=C/c2cc(OC)c(OC)c(OC)c2)s/c1=C1/C(=O)Nc2ccccc21 | 730 | 2580 | 6650 | 2.58
CCN(CC)CCCn1c(=O)/c(=C/c2cc(OC)c(OC)c(OC)c2)s/c1=C1/C(=O)Nc2ccc(C)cc21 | 320 | 4170 | 2020 | 0.48
CCN(CC)CCCn1c(=O)/c(=C/c2cc(OC)c(OC)c(OC)c2)s/c1=C1/C(=O)Nc2ccc(F)cc21 | 120 | 2390 | 2860 | 1.2
CCN(CC)CCCn1c(=O)/c(=C/c2cc(OC)c(OC)c(OC)c2)s/c1=C1/C(=O)Nc2cc(F)ccc21 | 470 | 1180 | 1640 | 1.39
CCN(CC)CCCn1c(=O)/c(=C/c2cc(OC)c(OC)c(OC)c2)s/c1=C1/C(=O)Nc2ccc(Cl)cc21 | 220 | 820 | 1650 | 2.02
CN(C)CCn1c(=O)/c(=C/c2ccc(O)cc2)s/c1=C1/C(=O)Nc2ccc(F)cc21 | 1340 | 1300 | 6140 | 4.73
CN(C)CCn1c(=O)/c(=C/c2ccc(O)cc2)s/c1=C1/C(=O)Nc2cc(F)ccc21 | > 2230 | 5590 | 7160 | 1.28
CN(C)CCn1c(=O)/c(=C/c2ccc3c(c2)OCO3)s/c1=C1/C(=O)Nc2ccccc21 | > 2230 | 1320 | 780 | 0.59
CCN(CC)CCCn1c(=O)/c(=C/c2ccc(O)cc2)s/c1=C1/C(=O)Nc2ccc(Cl)cc21 | > 2230 | 24600 | 48800 | 1.98
CN(C)CCn1c(=O)/c(=C/c2ccc(O)cc2)s/c1=C1\C(=O)Nc2ccccc21 | > 2230 | 4280 | 6160 | 1.44
CCN(CC)CCCn1c(=O)/c(=C/c2ccc(F)c(F)c2)s/c1=C1\C(=O)Nc2ccc(F)cc21 | > 2230 | 13400 | 6480 | 0.48
Cc1ccc2c(c1)/C(=c1/s/c(=C\c3ccc(O)cc3)c(=O)n1CCN(C)C)C(=O)N2 | > 2230 | 6740 | 6800 | 1.01
CCN(CC)CCCn1c(=O)/c(=C/c2ccc(F)cc2F)s/c1=C1\C(=O)Nc2cc(F)ccc21 | 1010 | 3690 | 4120 | 1.12
CCN(CC)CCCn1c(=O)/c(=C/c2cc(OC)c(OC)c(OC)c2)s/c1=C1\C(=O)Nc2ccccc21 | 730 | 2580 | 6650 | 2.58
CCN(CC)CCCn1c(=O)/c(=C/c2cc(OC)c(OC)c(OC)c2)s/c1=C1\C(=O)Nc2ccc(C)cc21 | 320 | 4170 | 2020 | 0.48
CCN(CC)CCCn1c(=O)/c(=C/c2cc(OC)c(OC)c(OC)c2)s/c1=C1\C(=O)Nc2ccc(F)cc21 | 120 | 2390 | 2860 | 1.2
CCN(CC)CCCn1c(=O)/c(=C/c2cc(OC)c(OC)c(OC)c2)s/c1=C1\C(=O)Nc2cc(F)ccc21 | 470 | 1180 | 1640 | 1.39
CCN(CC)CCCn1c(=O)/c(=C/c2cc(OC)c(OC)c(OC)c2)s/c1=C1\C(=O)Nc2ccc(Cl)cc21 | 220 | 820 | 1650 | 2.02
CN(C)CCn1c(=O)/c(=C/c2ccc(O)cc2)s/c1=C1\C(=O)Nc2ccc(F)cc21 | 1340 | 1300 | 6140 | 4.73
CN(C)CCn1c(=O)/c(=C/c2ccc(O)cc2)s/c1=C1\C(=O)Nc2cc(F)ccc21 | > 2230 | 5590 | 7160 | 1.28
CN(C)CCn1c(=O)/c(=C/c2ccc3c(c2)OCO3)s/c1=C1\C(=O)Nc2ccccc21 | > 2230 | 1320 | 780 | 0.59
CCN(CC)CCCn1c(=O)/c(=C/c2ccc(O)cc2)s/c1=C1\C(=O)Nc2ccc(Cl)cc21 | > 2230 | 24600 | 48800 | 1.98
COc1cccc2c1C(=O)c1c(O)c3c(c(O)c1C2=O)C[C@@](O)(C(=O)CO)C[C@@H]3O[C@H]1C[C@H](N)[C@H](O)[C@H](C)O1 [DOXORUBICIN] |  |  |  | 6.75
